Experimental data as given in publication PMC7072245, “Macromolecular Crowding Increases the Affinity of the PHD of ING4 for the Histone H3K4me3 Mark” (Biomolecules, 2020).
Like-named read-outs stand apart in the source and are kept apart here. Where no end group is shown, it is not given here. [ ]: non-standard residue; d: D form. Lys(Me3) = C[N+](C)(C)CCCC[C@H](N)C(=O)O; Lys(Me2) = CN(C)CCCC[C@H](N)C(=O)O

T1: Plant Homeodomain (PHD) of ING4 (uniformly 15N enriched (NMR samples))
T1 chain: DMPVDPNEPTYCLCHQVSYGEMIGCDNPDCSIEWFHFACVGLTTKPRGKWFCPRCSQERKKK

B1: histone H3 peptide (residues 1-15 plus C-terminal Tyr), unmethylated at lysine 4 (peptide)
peptide: ARTKQTARKSTGGKAY
notes: histone H3 N-terminal tail, residues 1-15; extra Tyr residue at the C-terminus for concentration measurement by UV absorbance; also called H3K4me0; unmethylated histone H3 tail
B2: histone H3 peptide (residues 1-15 plus C-terminal Tyr) dimethylated at lysine 4 (peptide)
peptide: ART[Lys(Me2)]QTARKSTGGKAY
notes: histone H3 N-terminal tail, residues 1-15; extra Tyr residue at the C-terminus for concentration measurement by UV absorbance; also called H3K4me2
B3: histone H3 peptide (residues 1-15 plus C-terminal Tyr) trimethylated at lysine 4 (peptide)
peptide: ART[Lys(Me3)]QTARKSTGGKAY
notes: histone H3 N-terminal tail, residues 1-15; extra Tyr residue at the C-terminus for concentration measurement by UV absorbance; also called H3K4me3; H3K4me3 peptide

Legend:
PHD of ING4 = target: T2, PHD of ING4 (Homo sapiens, UniProt Q9UNL4); assay: NMR titration of ING4-PHD with histone H3 peptides (CSP of W237 amide, 1H-15N HSQC); assay type: binding
T2 construct: we did the titration by NMR on a sample of 10 µM PHD of ING4
Procedure: These contained 50 or 10 µM uniformly -^15N enriched PHD in 20 mM sodium phosphate pH 6.5, 50 mM NaCl, 1 mM perdeuterated dithiotreitol, 5% (v/v) ^2H2O, and 0.01% (w/v) NaN3, plus different concentrations of Ficoll 70. […] Thus, the NMR titrations were completed in less than 24 h. NMR spectra were recorded at 25 °C on a BRUKER Avance III 800 spectrometer equipped with a TCI cryogenically cooled probe. At a concentration of 50 µM PHD, ^1H-^15N Heteronuclear Single Quantum Coherence (HSQC) spectra could be recorded in about 2 h with sufficient quality to measure the chemicals shift perturbations on peptide addition. At 10 µM PHD concentration, HSQC were recorded with only 16 t1 points and a ^15N spectral width of 10 ppm. […] In this way, the full titration of ING4-PHD with the histone peptide could be measured in less than 24 h.
Next, we measured the affinity of the binding in presence of Ficoll, by means of a NMR titration of the PHD with H3K4me3 peptide but in presence of 15% Ficoll (Figure 2). For binding analysis, we used the backbone amide signal of amino acid W237 because it experiences a large CSP upon peptide binding and is well isolated in a region of the spectrum with few other signals. […] This makes it necessary to reduce the protein concentration of the experiment.
On the other hand, the presence of 15% Ficoll 70 lowered the signal to noise ratio of the NMR experiment as signals got broader due to the increased viscosity of sample. So, we had to decrease the protein concentration of the experiment but not so much as to lose the signals in the noise. […] In these conditions, we could record ^1H-^15N HSQC experiments in 2 h and complete the titration in less than 1 day.
Once we got the optimum conditions, we did the titration by NMR on a sample of 10 µM PHD of ING4 in the presence of increasing amounts of H3K4me3 peptide (Figure 3).
Titrations at different percentages of Ficoll (0, 5, and 10 %) were done by NMR in a same manner as the titration at 15% Ficoll.

[1] = target: T1, Plant Homeodomain (PHD) of ING4; assay: NMR titration; 10 µM 15N PHD titrated with peptide, 15% Ficoll 70; 20 mM sodium phosphate pH 6.5, 50 mM NaCl, 1 mM DTT, 25 °C; CSP of W237 amide in 1H-15N HSQC, single site fit; conditions: both partners purified
[2] = target: T1, Plant Homeodomain (PHD) of ING4; assay: NMR titration; PHD titrated with peptide, 0% Ficoll 70; 20 mM sodium phosphate pH 6.5, 50 mM NaCl, 1 mM DTT, 25 °C; CSP of W237 amide; conditions: both partners purified

Molecule | Kd (PHD of ING4) | Kd [1] | further results
C[C@H](N)C(=O)N[C@@H](CCCNC(=N)N)C(=O)N[C@H](C(=O)N[C@@H](CCCCN(C)C)C(=O)N[C@@H](CCC(N)=O)C(=O)N[C@H](C(=O)N[C@@H](C)C(=O)N[C@@H](CCCNC(=N)N)C(=O)N[C@@H](CCCCN)C(=O)N[C@@H](CO)C(=O)N[C@H](C(=O)NCC(=O)NCC(=O)N[C@@H](CCCCN)C(=O)N[C@@H](C)C(=O)N[C@@H](Cc1ccc(O)cc1)C(=O)O)[C@@H](C)O)[C@@H](C)O)[C@@H](C)O [H3K4me2] | 1.4 ± 0.6 µM | – | –
CNCCCC[C@H](NC(=O)[C@@H](NC(=O)[C@H](CCCNC(=N)N)NC(=O)[C@H](C)N)[C@@H](C)O)C(=O)N[C@@H](CCC(N)=O)C(=O)N[C@H](C(=O)N[C@@H](C)C(=O)N[C@@H](CCCNC(=N)N)C(=O)N[C@@H](CCCCN)C(=O)N[C@@H](CO)C(=O)N[C@H](C(=O)NCC(=O)NCC(=O)N[C@@H](CCCCN)C(=O)N[C@@H](C)C(=O)N[C@@H](Cc1ccc(O)cc1)C(=O)O)[C@@H](C)O)[C@@H](C)O [H3K4me1] | 12 ± 4 µM | – | –
C[C@H](N)C(=O)N[C@@H](CCCNC(=N)N)C(=O)N[C@H](C(=O)N[C@@H](CCCC[N+](C)(C)C)C(=O)N[C@@H](CCC(N)=O)C(=O)N[C@H](C(=O)N[C@@H](C)C(=O)N[C@@H](CCCNC(=N)N)C(=O)N[C@@H](CCCCN)C(=O)N[C@@H](CO)C(=O)N[C@H](C(=O)NCC(=O)NCC(=O)N[C@@H](CCCCN)C(=O)N[C@@H](C)C(=O)N[C@@H](Cc1ccc(O)cc1)C(=O)O)[C@@H](C)O)[C@@H](C)O)[C@@H](C)O [H3K4me3] | 0.4 ± 0.3 µM | – | Kd (PHD of ING4; absence of Ficoll (0%), NMR, 20 mM sodium phosphate pH 6.5, 50 mM NaCl, 25 °C, read-out: KD): 3.9 ± 0.7 µM
B1 | – | 100 ± 10 µM | –
B2 | – | 1.4 ± 0.6 µM | –
B3 | – | 0.4 ± 0.3 µM | Kd [2]: 3.9 ± 0.7 µM
